# Assay results: patent US9926340B2, “NAD analogs and methods of using said NAD analogs in determining ribosylation of proteins with PARP mutants” (The Board of Regents of the University of Texas System, priority 2015, dated 2018)
# Test system: HeLa cell nuclear extract proteins
# Assay: ADP-ribosylation of HeLa cell nuclear extract proteins by asPARPs 1, 2 or 3
# Assay type: biochemical, human
# Settings: purified recombinant asPARPs 1, 2, or 3; 250 μM analog, 15 min
# Experimental: HeLa cell nuclear extract preparation. HeLa Nuclear Extract was prepared essentially as described in Dignam et al., 1983. 5 L of HeLa S3 cells were grown in Spinner flasks to a density of 0.5×10^6 cells per milliliter and harvested by centrifugation at 4° C. for 10 minutes at 2000 RPM. Cell pellets were washed in 5 pelleted cell volumes of ice cold PBS and centrifuged 10 minutes at 2000 RPM. Cells were resuspended in 5 pelleted cell volumes of Buffer A (10 mM HEPES, pH 7.9, 1.5 mM MgCl2, 10 mM KCl, 0.5 mM DTT, 1 mM PMSF, 4 mM Benzamidine, 1 μM Aprotinin, 100 μM Leupeptin, 1 μM Pepstatin A) and incubated 10 minutes on ice to facilitate cell swelling and centrifuged at 4° C. for 10 minutes at 2000 RPM. Cells were resuspended in 2 pelleted cell volumes of Buffer A and dounced with a light pestle dounce homogenizer (Wheaton) to release nuclei. The nuclei were then pelleted by centrifugation at 4° C. for 10 minutes at 2000 RPM and the supernatant decanted. The nuclei were subsequently centrifuged at 4° C. for 20 minutes at 25,000 RCF to obtain a crude nuclear fraction. […]
structure (smiles),measurement,value
C#CCCSc1nc2c(N)ncnc2n1[C@@H]1O[C@H](COP(=O)(O)OP(=O)(O)OC[C@H]2O[C@@H]([n+]3cccc(C(N)=O)c3)C(O)C2O)[C@H](O)C1O (stereo partly shown) [8-Bu(3-yne)T-NAD^+],labeling of HeLa cell nuclear extract proteins,PARP-specific labeling of extract proteins
